Read-outs that look alike come from different tables or passages of the source.
Experiments:
[1] = system: MDSCs; experiment: Dispersion of MDSCs from the culture dish by standard digestion; type: cell-based, human; details: standard digestion for up to 60 minutes
Procedure: In this example, a feature of the MDSCs is resistance to dispersion by trypsin and/or EDTA, or dispase. […] Therefore, to obtain cell suspensions for subculture, the MDSCs were dispersed by forceful pipetting after incubation with 2% lidocaine in a PBS solution for 5-8 minutes, with the exception of the work described in Example 8.

[2] = system: MDSC colonies Clone 1 and Clone 2; details: seven days; for Immunostained cells (%), vWF (Endothelial): 50 ng/ml VEGF; for Immunostained cells (%), MAP1-B (Neuronal): 200 ng/ml NGF; for Immunostained cells (%), Keratins (Epithelial): 100 ng/ml EGF
Procedure: To determine whether progeny of colonies derived from single MDSCs can be induced to differentiate into distinct cell lineages, cells from a five-day, 50 ng/ml, M-CSF-treated culture enriched to contain 99.97% peripheral blood monocytes were inoculated into 12 U-bottom tissue culture plates, 96 wells each, at 0.8 cells/well in 0.1-0.2 ml growth medium. The cells were then incubated in the presence of 50 ng/ml M-CSF and 1,000 units/ml LIF for 15-20 days. Additionally, one plate was incubated with 25% conditioned medium from a five-day, 50 ng/ml, M-CSF treated culture. […] The few wells that contained more than one cell were excluded from further experimentation. Medium was replaced every 5-7 days.
At 45-52 days, these cells were dispersed by forceful pipetting, without lidocaine, into flat-bottom, 96-well, tissue culture plates. […] Two colonies of MDSCs, each of which had arisen from a single cell, were chosen for further differentiation experiments and were termed Clone 1 and Clone 2. […] These antibodies separately recognized cell-surface markers that included the T lymphocyte marker CD3, the epithelial marker keratin, the endothelial marker vWF, the neuronal marker MAP1-B, and the hepatocyte marker AFP.

[3] = system: MDSC cultures; experiment: VEGF-induced endothelial cell differentiation of MDSC cultures; details: 50 ng/ml VEGF, 5-7 days
Procedure: MDSC cultures prepared as described above were treated with 50 ng/ml of recombinant human vascular endothelial growth factor165 isoform (VEGF) for 5-7 days.

[4] = system: freshly cultured peripheral blood monocytes; experiment: bNGF treatment of freshly cultured peripheral blood monocytes; type: cell-based, human; details: bNGF for 7 or 20 days
[5] = system: MDSC cultures; experiment: bNGF-induced neuronal cell differentiation of MDSC cultures; type: cell-based, human; details: 200 ng/ml bNGF
Procedure: To examine the ability of MDSCs to mature along yet another cell lineage, the effect of nerve growth factor (bNGF), an inducer of neuronal differentiation (McAllister et al., Cell. Mol. Life Sci., 58:1054-1060 (2001)), was tested. […] After 5-8 days these processes, some of which were exceedingly long, formed cell-cell contacts and created the appearance of a neural network. These mature cells were further characterized by immunostaining for neuron-specific enolase (NSE), neurofilament (NF) and microtubule-associated protein-1B (MAP-1B), which are well-known markers of neuronal cells (Encinas et al., J. Neurochem., 75:991-1003 (2000)).

[6] = system: MDSC cultures; experiment: Insulin release from MDSC cultures (insulin ELISA); type: cell-based, human; parameters: insulin release with osmolarity control: dose or concentration left out as unconfirmed
Procedure: Insulin release. MDSC cultures incubated in 24-well tissue culture plates (Costar, Cambridge, Mass.) at 70-80% confluence were treated for 4-5 days with LPS or CD40Ab. Insulin secretion was assessed as previously described in Schuit, F., et al., J. Biol. Chem. 272:18572-18579 (1997), using an insulin ELISA kit (Linco Research, MO). When required, the untreated or treated cultures were also pre-incubated for 30 min with […] diazoxide, 10 mM tolbudamide, or […] IBMX.

[7] = system: MDSC cultures; experiment: EGF-induced epithelial cell differentiation of MDSC cultures; type: cell-based, human; details: 100 ng/ml EGF, 4 days
Excerpt: To determine whether MDSCs differentiate into lineages other than those of blood cells, the ability to differentiate into epithelial cells was initially tested. […] Only 4±1% of control cells stained for keratins and 3±2% for E-cadherin. Cells that stained positive for E-cadherin consistently stained for keratins.

[8] = system: human peripheral blood monocytes; experiment: Generation and growth of MDSCs in cultured peripheral blood monocytes (morphological examination); type: cell-based
Procedure: Peripheral blood monocyte (PBM) preparations from about 50 ml buffy coats samples (each from 500 ml peripheral blood) of healthy individuals (LifeSource Blood Services, Glenview, Ill.) were obtained by a selective attachment method as previously described (Hoklland, M. et al., Cell Biology, a laboratory handbook, Celis J. E. ed., Academic Press, 1: 179-181 (1994)). Buffy coat cell samples of 20-25 ml, which were diluted earlier with an equal volume of RPMI 1640 medium (Life Technologies, Inc.), were carefully layered over 20 ml Ficoll-Hypaque (γ=1.077) in 50 ml centrifuge tubes and then centrifuged using a Beckman CPKR centrifuge and a GH-3.7 horizontal rotor at 3,500 rpm (2700 g) for 25 minutes at 4° C. After carefully harvesting the mononuclear cells at the interface, cells were washed 2-3 times with RPMI 1640 medium by centrifugation using a Beckman CPKR centrifuge and a GH-3.7 horizontal rotor at 1,000 rpm (250 g) for 10 minutes. The cells were then used for culture and/or stored in liquid nitrogen in a 90% bovine calf serum and 10% dimethyl sulfoxide solution. The cells, including those obtained from storage in liquid nitrogen, were incubated at 2-3×10^7 cells/15 cm dish. After 8-12 hours incubation at 37° C. (8% CO2), the floating cells were removed and the dishes were rinsed 5 times with RPMI 1640 medium. The attached cells were then detached from the surface of the dishes by forceful pipetting with 5-10 ml of RPMI 1640 medium supplemented with 10% bovine calf serum.
The percentage of PBM was verified by immunostaining with an R-phycoerythin-conjugated mouse anti-human CD14 monoclonal antibody using a Becton Dickinson FACScan. The fraction of CD14 cells in these cell preparations, which were usually used in the experiments, was 90-95%. In a number of experiments, the CD14-immunostained cells were further isolated to a purity of 99.97% by using a droplet cell-sorting method by means of a 5 detector Becton Dickinson FACStarPlus Cell Sorter. The isolated PBMs were inoculated at 1×10^5 cells/ml in 8-well LabTek chamber slides (Nunc, Inc., Naperville, Ill.) at 0.4 ml/well in a 37° C. humidified atmosphere containing 8% CO2. Every five to seven days, one-half of the culture medium was replaced with fresh growth medium. This medium consisted of RPMI-1640 supplemented with 10% heat-inactivated bovine calf serum (Harlan, Indianapolis, Ind.), 100 units/ml penicillin, 100 μg/ml streptomycin, and 2 mM L-glutamine (Life Technologies).
Five preparations of cultured human peripheral blood monocytes, each from a different individual, were treated with 50 ng/ml M-CSF (Zhoa et al., Proc. Natl. Acad. Sci., 100:2426-2431 (2003); incorporated herein by reference in its entirety). After five days of incubation, the cultures contained two major morphologically distinct subsets of cells. The less abundant of the two subsets, containing about 25-35% of the total cells, was composed of elongated cells that morphologically resembled fibroblasts and were termed monocyte-derived stem cells (MDSCs). The other subset, containing about 65-75% of the total, was composed of standard macrophages, which were termed s-macrophages or standard macrophages (s-MΦ) (FIG. 1). […]
In order to determine whether the MDSCs were simply replicating progenitors of s-MΦ, five preparations of cultured peripheral blood monocytes, each from a different human, were treated with 50 ng/ml M-CSF and the number of MDSCs and s-MΦ were determined over a period of 14 days by morphological examination. […]

[9] = 50 ng/ml M-CSF, five days, five monocyte preparations

Molecule: trypsin
- removal of MDSCs from the surface of the culture dish [1]: failed to remove the MDSCs

Molecule: VEGF
- Immunostained cells (%), vWF (Endothelial) ([2]; Clone 1): 80%
- Immunostained cells (%), vWF (Endothelial) ([2]; Clone 2): 87%
- cells displaying endothelial cell morphology [3]: about 70%
- cells immunostaining for VEGF-R2, VEGF-R3 and vWF [3]: 74±3%
- cells immunostaining for neuronal markers NSE, NF and MAP-1B [3]: 31±4%

Molecule: bNGF: nerve growth factor, an inducer of neuronal differentiation
- neuronal differentiation [4]: Little to no neuronal differentiation
- MDSCs displaying neuronal morphology [5]: about 90%
- cells with immunostaining for NSE, NF and MAP-1B ([5]; 5-8 days): about 90%
- cells with robust immunostaining for NSE, NF and MAP-1B ([5]; three days): 25%
- Immunostained cells (%), MAP1-B (Neuronal) ([2]; Clone 1): 83%
- Immunostained cells (%), MAP1-B (Neuronal) ([2]; Clone 2): 80%

Molecule: CCCCNC(=O)NS(=O)(=O)c1ccc(C)cc1 [tolbutamide]
- effect on LPS- or CD40Ab-induced insulin release ([6]; low glucose (5 mM), 30 minutes, 10 μM tolbudamide, 100 μM IBMX): markedly stimulated

Molecule: CC1=NS(=O)(=O)c2cc(Cl)ccc2N1 [diazoxide]
- effect on LPS- or CD40Ab-induced insulin release ([6]; high glucose, 30 min pre-incubation): effectively inhibited

Molecule: OC[C@@H](O)[C@@H](O)[C@H](O)[C@H](O)CO [Mannite]
- insulin release with osmolarity control [6]: little to no insulin release

Molecule: EGF: promoter of epithelial cell growth and differentiation
- MDSCs displaying epithelial cell morphology [7]: about 70%
- cells immunostaining for E-cadherin [7]: 68±5%
- cells immunostaining for pan-keratins [7]: 71±4%
- Immunostained cells (%), Keratins (Epithelial) ([2]; Clone 1): 89%
- Immunostained cells (%), Keratins (Epithelial) ([2]; Clone 2): 76%

B1: M-CSF: macrophage colony-stimulating factor, mitogenic compound used to propagate MDSCs (protein, UniProt P09603 33-554, looked up)
Macrophage colony-stimulating …: EEVSEYCSHMIGSGHLQSLQRLIDSQMETSCQITFEFVDQEQLKDPVCYLKKAFLLVQDIMEDTMRFRDNTPNAIAIVQLQELSLRLKSCFTKDYEEHDKACVRTFYETPLQLLEKVKNVFNETKNLLDKDWNIFSKNCNNSFAECSSQDVVTKPDCNCLYPKAIPSSDPASVSPHQPLAPSMAPVAGLTWEDSEGTEGSSLLPGEQPLHTVDPGSAKQRPPRSTCQSFEPPETPVVKDSTIGGSPQPRPSVGAFNPGMEDILDSAMGTNWVPEEASGEASEIPVPQGTELSPSRPGGGSMQTEPARPSNFLSASSPLPASAKGQQPADVTGTALPRVGPVRPTGQDWNHTPQKTDHPSALLRDPPEPGSPRISSLRPQGLSNPSTLSAQPQLSRSHSSGSVLPLGELEGRRSTRDRRSPAEPEGGPASEGAARPLPRFNSVPLTDTGHERQSEGSFSPQLQESVFHLLVPSVILVLLAVGGLLFYRWRRRSHQEPQRADSPLEQPEGSPLTQDDRQVELPV
- MDSCs in confluent cultures ([8]; 50 ng/ml M-CSF, after day 10): 80-90%
- MDSC population replication interval ([8]; 50 ng/ml M-CSF, estimated from growth curve after 6 days): three
- MDSCs, share of the total cells [8, 9]: 25-35%
- standard macrophages (s-MΦ), share of the total cells [8, 9]: 65-75%
- cells with MDSC morphology ([8]; 50 ng/ml, 7-9 days): 70-80%
